According to patent publication US8921362B2, “6,7-dialkoxy quinazoline derivatives and methods of treating drug resistant and other tumors” (Natco Pharma Limited, priority 2008, dated 2014):

Legend:
Assay in all cases: KinomeScan
Type in all cases: binding
Settings in all cases: read-out: % Ctrl @ 10000 nM
ABL1 = target: T1, ABL1 (Homo sapiens, UniProt P00519)
T1 construct: host or cells: E. coli (BL21-derived), T7 phage lysate
Method: (§1) Kinase assays: Assays were performed as described in Fabian et al. (2005) Nature Biotechnology, vol. 23, p. 329. Kinase-tagged T7 phage strains were grown in parallel in 24 or 96-well blocks in an E. coli host derived from the BL21 strain. E. coli were grown to log-phase and infected with T7 phage from a frozen stock (multiplicity of infection ˜0.1) and incubated with shaking at 32° C. until lysis (−90 minutes). The lysates were centrifuged and filtered to remove cell debris. […] The liganded beads were blocked with excess biotin and washed with blocking buffer (SeaBlock (Pierce), 1% BSA, 0.05% Tween 20, 1 mM DTT) to remove unbound ligand and to reduce non-specific phage binding.
(§2) Test compounds were prepared as 40× stocks in DMSO and diluted into the aqueous environment. 2.5% DMSO was added to control assays lacking a test compound. All reactions were performed in polystyrene 96-well plates that had been pretreated with blocking buffer in a final volume of 0.04 ml. […] The phage titer in the eluates was measured by quantitative PCR.

AURKC = target: T2, AURKC (Homo sapiens, UniProt Q9UQB9)
T2 construct: host or cells: E. coli host derived from BL21
Method: as §1, §2

BRAF(V600E) = target: T3, BRAF(V600E) (Homo sapiens, UniProt P15056, V600E)
T3 construct: host or cells: E. coli host derived from BL21
Method: as §1, §2

BRSK2 = target: T4, BRSK2 (Homo sapiens, UniProt Q8IWQ3)
T4 construct: host or cells: E. coli host derived from BL21
Method: as §1, §2

CDK11 = target: T5, CDK11 (Homo sapiens, UniProt Q9BWU1)
T5 construct: host or cells: T7 phage in E. coli host derived from BL21
Method: as §1, §2

CDK8 = target: T6, CDK8 (Homo sapiens, UniProt P49336)
T6 construct: host or cells: T7 phage in E. coli host derived from BL21
Method: as §1, §2

CHEK1 = target: T7, CHEK1 (Homo sapiens, UniProt O14757)
T7 construct: host or cells: T7 phage in E. coli host derived from BL21
Method: as §1, §2

EGFR(L747-T751del, Sins) = target: T8, EGFR(L747-T751del, Sins) (Homo sapiens, UniProt P00533, DEL747-750/T751S)
T8 construct: purchased Ambit Biosciences Corp; host or cells: T7 phage in E. coli host derived from BL21
Method: as §1, §2

EPHA2 = target: T9, EPHA2 (Homo sapiens, UniProt P29317)
T9 construct: purchased Ambit Biosciences Corp; host or cells: T7 phage in E. coli host derived from BL21
Method: as §1, §2

EPHB1 = target: T10, EPHB1 (Homo sapiens, UniProt P54762)
T10 construct: purchased Ambit Biosciences Corp; host or cells: T7 phage in E. coli host derived from BL21
Method: as §1, §2

GSK3A = target: T11, GSK3A (Homo sapiens, UniProt P49840)
T11 construct: host or cells: T7 phage in E. coli host derived from BL21
Method: as §1, §2

INSR = target: T12, INSR (Homo sapiens, UniProt P06213)
T12 construct: host or cells: T7 phage grown in E. coli host derived from BL21
Method: as §1, §2

INSRR = target: T13, INSRR (Homo sapiens, UniProt P14616)
T13 construct: host or cells: T7 phage grown in E. coli host derived from BL21
Method: as §1, §2

KIT = target: T14, KIT (Homo sapiens, UniProt P10721)
T14 construct: host or cells: T7 phage grown in E. coli host derived from BL21
Method: as §1, §2

KIT(V559D, V654A) = target: T15, KIT(V559D, V654A) (Homo sapiens, UniProt P10721, V559D/V654A)
T15 construct: host or cells: T7 phage grown in E. coli host derived from BL21
Method: as §1, §2

LCK = target: T16, LCK (Homo sapiens, UniProt P06239)
T16 construct: host or cells: T7 phage grown in E. coli host derived from BL21
Method: as §1, §2

LTK = target: T17, LTK (Homo sapiens, UniProt P29376)
T17 construct: host or cells: E. coli host derived from the BL21 strain, infected with T7 phage
Method: as §1, §2

MLK3 = target: T18, MLK3 (Homo sapiens, UniProt Q16584)
T18 construct: host or cells: T7 phage grown in E. coli host derived from BL21
Method: as §1, §2

MST4 = target: T19, MST4 (Homo sapiens, UniProt Q9P289)
T19 construct: host or cells: T7 phage grown in E. coli host derived from BL21
Method: as §1, §2

PCTK1 = target: T20, PCTK1 (Homo sapiens, UniProt Q00536)
T20 construct: host or cells: E. coli host derived from BL21, infected with T7 phage
Method: as §1, §2

PKMYT1 = target: T21, PKMYT1 (Homo sapiens, UniProt Q99640)
T21 construct: host or cells: T7 phage in E. coli host derived from BL21
Method: as §1, §2

PKN2 = target: T22, PKN2 (Homo sapiens, UniProt Q16513)
T22 construct: host or cells: T7 phage in E. coli host derived from BL21
Method: as §1, §2

PRKG2 = target: T23, PRKG2 (Homo sapiens, UniProt Q13237)
T23 construct: host or cells: T7 phage in E. coli host derived from BL21
Method: as §1, §2

RET(M918T) = target: T24, RET(M918T) (Homo sapiens, UniProt P07949, M918T)
T24 construct: host or cells: E. coli host derived from BL21, T7 phage display
Method: as §1, §2

RET(V804L) = target: T25, RET(V804L) (Homo sapiens, UniProt P07949, V804L)
T25 construct: host or cells: E. coli host derived from BL21, T7 phage display
Method: as §1, §2

ROCK2 = target: T26, ROCK2 (Homo sapiens, UniProt O75116)
T26 construct: host or cells: E. coli host derived from BL21, T7 phage display
Method: as §1, §2

[1] = target: T27, RPS6KA1(Kin.Dom.-1-N-terminal) (Homo sapiens, UniProt Q15418)
T27 construct: RPS6KA1(Kin.Dom.-1-N-terminal); host or cells: E. coli host derived from BL21, T7 phage display
Method: as §1, §2

SRPK1 = target: T28, SRPK1 (Homo sapiens, UniProt Q96SB4)
T28 construct: host or cells: T7 phage grown in E. coli (BL21-derived)
Method: as §1, §2

SRPK3 = target: T29, SRPK3 (Homo sapiens, UniProt Q9UPE1)
T29 construct: host or cells: T7 phage grown in E. coli (BL21-derived)
Method: as §1, §2

TEC = target: T30, TEC (Homo sapiens, UniProt P42680)
T30 construct: host or cells: T7 phage grown in E. coli (BL21-derived)
Method: as §1, §2

TNIK = target: T31, TNIK (Homo sapiens, UniProt Q9UKE5)
T31 construct: host or cells: E. coli host derived from BL21, T7 phage
Method: as §1, §2

TRKB = target: T32, TRKB (Homo sapiens, UniProt Q16620)
T32 construct: host or cells: E. coli host derived from BL21, T7 phage
Method: as §1, §2

p38-alpha = target: T33, p38-alpha (Homo sapiens, UniProt Q16539)
T33 construct: host or cells: E. coli host derived from BL21, infected with T7 phage
Method: as §1, §2

T26 sequence (O75116 whole entry): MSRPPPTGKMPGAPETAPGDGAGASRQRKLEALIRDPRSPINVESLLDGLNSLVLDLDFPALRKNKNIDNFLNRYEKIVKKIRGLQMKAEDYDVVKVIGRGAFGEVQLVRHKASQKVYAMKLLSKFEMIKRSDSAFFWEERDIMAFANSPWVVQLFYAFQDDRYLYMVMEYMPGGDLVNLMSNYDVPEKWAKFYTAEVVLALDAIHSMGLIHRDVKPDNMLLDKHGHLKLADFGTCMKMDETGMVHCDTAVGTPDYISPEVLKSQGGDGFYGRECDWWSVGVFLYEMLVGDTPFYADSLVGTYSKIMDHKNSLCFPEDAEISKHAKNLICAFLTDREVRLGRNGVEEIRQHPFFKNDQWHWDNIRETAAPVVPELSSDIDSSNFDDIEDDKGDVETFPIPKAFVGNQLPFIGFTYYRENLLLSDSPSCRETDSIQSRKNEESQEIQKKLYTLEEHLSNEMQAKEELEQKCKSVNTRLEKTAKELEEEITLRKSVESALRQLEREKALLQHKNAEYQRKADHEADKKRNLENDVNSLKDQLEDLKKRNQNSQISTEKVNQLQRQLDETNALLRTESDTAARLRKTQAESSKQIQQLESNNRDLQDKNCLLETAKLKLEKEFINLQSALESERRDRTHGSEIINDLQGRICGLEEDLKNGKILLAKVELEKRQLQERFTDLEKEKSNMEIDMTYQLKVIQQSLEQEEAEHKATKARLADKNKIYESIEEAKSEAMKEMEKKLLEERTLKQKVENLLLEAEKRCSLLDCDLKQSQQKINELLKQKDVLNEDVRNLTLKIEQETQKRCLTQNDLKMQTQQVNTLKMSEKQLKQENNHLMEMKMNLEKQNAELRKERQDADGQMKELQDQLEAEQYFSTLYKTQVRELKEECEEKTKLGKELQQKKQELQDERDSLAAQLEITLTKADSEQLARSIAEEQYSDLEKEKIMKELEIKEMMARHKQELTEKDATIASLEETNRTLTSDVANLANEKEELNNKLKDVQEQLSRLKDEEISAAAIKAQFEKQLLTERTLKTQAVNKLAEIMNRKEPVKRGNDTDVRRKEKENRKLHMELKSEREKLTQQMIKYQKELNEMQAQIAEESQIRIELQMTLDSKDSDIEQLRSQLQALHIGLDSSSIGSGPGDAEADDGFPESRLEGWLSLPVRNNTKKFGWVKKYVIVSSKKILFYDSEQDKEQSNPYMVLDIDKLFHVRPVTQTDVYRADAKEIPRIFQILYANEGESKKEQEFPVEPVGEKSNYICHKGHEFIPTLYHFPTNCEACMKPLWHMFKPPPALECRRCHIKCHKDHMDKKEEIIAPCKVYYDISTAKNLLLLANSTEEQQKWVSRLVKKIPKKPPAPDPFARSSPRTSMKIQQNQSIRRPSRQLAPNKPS
T21 sequence (Q99640 whole entry): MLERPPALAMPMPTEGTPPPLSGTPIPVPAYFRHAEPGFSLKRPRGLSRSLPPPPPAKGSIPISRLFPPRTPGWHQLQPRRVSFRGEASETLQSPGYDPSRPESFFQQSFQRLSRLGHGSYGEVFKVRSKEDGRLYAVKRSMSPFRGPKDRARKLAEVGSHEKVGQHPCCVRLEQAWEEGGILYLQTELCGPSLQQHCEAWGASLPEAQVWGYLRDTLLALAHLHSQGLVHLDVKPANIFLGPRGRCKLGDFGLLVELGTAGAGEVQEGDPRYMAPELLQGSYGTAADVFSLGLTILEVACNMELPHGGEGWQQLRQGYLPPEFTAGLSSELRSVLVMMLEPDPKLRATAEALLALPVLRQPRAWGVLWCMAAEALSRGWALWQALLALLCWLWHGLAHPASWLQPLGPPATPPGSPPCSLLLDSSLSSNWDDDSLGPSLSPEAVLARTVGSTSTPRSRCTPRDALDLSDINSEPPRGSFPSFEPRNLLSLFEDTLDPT
T8 sequence (P00533 with tags, fused parts or gaps DEL747-750/T751S): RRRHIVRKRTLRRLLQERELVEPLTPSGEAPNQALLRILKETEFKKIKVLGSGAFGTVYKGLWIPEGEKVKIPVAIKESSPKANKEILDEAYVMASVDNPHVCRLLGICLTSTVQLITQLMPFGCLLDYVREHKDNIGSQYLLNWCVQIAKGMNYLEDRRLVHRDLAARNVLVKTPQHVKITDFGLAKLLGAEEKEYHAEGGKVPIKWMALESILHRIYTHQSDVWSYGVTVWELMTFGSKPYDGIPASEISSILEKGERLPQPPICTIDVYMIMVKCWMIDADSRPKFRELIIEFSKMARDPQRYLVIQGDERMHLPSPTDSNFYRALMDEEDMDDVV
T23 sequence (Q13237 whole entry): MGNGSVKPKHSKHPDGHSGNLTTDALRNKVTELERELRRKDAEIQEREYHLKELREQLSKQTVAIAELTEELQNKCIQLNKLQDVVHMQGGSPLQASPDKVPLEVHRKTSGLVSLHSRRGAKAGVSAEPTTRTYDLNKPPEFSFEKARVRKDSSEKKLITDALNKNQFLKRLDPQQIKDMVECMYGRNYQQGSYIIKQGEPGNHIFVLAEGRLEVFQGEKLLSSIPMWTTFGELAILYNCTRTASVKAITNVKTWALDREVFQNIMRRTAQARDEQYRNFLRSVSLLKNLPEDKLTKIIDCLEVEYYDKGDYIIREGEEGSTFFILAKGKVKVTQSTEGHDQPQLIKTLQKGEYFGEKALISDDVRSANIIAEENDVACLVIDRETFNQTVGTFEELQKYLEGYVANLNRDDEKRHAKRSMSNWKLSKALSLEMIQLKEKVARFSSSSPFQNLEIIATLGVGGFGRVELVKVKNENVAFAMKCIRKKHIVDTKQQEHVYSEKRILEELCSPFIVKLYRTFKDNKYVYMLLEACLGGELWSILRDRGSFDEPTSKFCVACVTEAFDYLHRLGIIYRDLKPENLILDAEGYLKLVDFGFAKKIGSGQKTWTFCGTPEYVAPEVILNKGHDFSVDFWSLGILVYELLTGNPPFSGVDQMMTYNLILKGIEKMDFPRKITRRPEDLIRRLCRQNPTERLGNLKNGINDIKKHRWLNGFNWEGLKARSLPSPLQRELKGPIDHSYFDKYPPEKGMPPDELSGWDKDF
T10 sequence (P54762 18-984): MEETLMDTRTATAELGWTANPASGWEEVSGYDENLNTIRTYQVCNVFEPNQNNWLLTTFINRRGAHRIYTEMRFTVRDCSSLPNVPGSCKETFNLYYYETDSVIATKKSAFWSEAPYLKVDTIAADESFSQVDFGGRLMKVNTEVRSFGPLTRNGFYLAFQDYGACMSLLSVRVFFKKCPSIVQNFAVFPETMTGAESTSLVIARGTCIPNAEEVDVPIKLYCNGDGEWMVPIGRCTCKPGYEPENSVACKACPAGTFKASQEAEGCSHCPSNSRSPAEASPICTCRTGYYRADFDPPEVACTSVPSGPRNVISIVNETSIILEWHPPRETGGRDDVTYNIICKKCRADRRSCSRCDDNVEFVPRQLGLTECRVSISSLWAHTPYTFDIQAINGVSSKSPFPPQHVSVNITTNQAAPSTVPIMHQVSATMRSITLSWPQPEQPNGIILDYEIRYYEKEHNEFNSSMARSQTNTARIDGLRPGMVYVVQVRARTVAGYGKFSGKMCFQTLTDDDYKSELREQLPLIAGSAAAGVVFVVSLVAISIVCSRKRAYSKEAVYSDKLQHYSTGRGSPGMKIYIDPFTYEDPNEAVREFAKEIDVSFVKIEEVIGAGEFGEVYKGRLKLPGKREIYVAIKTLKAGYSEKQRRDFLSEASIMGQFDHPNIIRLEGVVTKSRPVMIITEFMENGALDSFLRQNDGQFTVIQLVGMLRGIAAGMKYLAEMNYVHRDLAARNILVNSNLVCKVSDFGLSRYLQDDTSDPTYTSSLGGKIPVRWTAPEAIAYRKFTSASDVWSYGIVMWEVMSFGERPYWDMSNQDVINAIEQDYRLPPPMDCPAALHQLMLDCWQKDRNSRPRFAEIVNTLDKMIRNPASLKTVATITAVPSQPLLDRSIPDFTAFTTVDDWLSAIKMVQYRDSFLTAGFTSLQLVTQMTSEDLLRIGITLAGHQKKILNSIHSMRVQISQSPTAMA
T29 sequence (Q9UPE1 whole entry): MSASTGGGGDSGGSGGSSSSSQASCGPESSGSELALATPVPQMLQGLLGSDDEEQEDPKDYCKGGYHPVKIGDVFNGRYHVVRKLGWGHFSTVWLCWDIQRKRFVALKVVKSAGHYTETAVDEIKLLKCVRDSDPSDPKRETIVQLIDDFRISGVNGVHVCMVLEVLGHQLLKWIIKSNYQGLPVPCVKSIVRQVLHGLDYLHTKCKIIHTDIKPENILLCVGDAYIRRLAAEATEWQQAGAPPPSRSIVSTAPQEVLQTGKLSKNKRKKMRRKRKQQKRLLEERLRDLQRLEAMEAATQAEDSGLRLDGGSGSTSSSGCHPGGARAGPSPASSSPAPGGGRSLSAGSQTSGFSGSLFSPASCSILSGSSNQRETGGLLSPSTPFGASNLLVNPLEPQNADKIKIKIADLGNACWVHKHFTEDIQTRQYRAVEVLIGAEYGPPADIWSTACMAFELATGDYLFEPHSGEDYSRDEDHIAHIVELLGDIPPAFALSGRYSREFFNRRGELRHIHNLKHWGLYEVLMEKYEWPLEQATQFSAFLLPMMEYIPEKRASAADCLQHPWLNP
T2 sequence (Q9UQB9 whole entry): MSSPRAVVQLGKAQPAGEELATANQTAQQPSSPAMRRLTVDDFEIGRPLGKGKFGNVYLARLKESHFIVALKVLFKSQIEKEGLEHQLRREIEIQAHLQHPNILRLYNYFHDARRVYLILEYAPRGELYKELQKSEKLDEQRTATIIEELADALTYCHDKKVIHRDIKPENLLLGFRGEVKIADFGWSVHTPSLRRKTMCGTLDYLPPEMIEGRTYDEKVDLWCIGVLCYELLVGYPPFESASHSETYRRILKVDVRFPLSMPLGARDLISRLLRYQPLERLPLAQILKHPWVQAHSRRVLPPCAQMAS

Question: `C#Cc1cccc(Nc2ncnc3cc(OC)c(OCCCN4CCOCC4)cc23)c1` [NRC-2694, N-(3-ethynylphenyl)-7-methoxy-6-[3-(4-morpholinyl)propoxy]-4-quinazolinamine] was tested. Which remaining binding at 10 µM (ABL1) did it give?
Answer: 67%

Question: What about the remaining binding at 10 µM (AURKC) of the same molecule?
Answer: 47%

Question: And the remaining binding at 10 µM (BRAF(V600E))?
Answer: 73%

Question: What about the remaining binding at 10 µM (BRSK2) of the same molecule?
Answer: 33%

Question: What about the remaining binding at 10 µM (CDK11) of the same molecule?
Answer: 87%

Question: And the remaining binding at 10 µM (CDK8)?
Answer: 100%

Question: And the remaining binding at 10 µM (CHEK1)?
Answer: 42%

Question: And the remaining binding at 10 µM (EGFR(L747-T751del, Sins))?
Answer: 0%

Question: What about the remaining binding at 10 µM (EPHA2) of the same molecule?
Answer: 100%

Question: And the remaining binding at 10 µM (EPHB1)?
Answer: 72%

Question: And the remaining binding at 10 µM (GSK3A)?
Answer: 75%

Question: What about the remaining binding at 10 µM (INSR) of the same molecule?
Answer: 90%

Question: What about the remaining binding at 10 µM (INSRR) of the same molecule?
Answer: 79%

Question: And the remaining binding at 10 µM (KIT)?
Answer: 26%

Question: What about the remaining binding at 10 µM (KIT(V559D, V654A)) of the same molecule?
Answer: 47%

Question: What about the remaining binding at 10 µM (LCK) of the same molecule?
Answer: 1.5%

Question: What about the remaining binding at 10 µM (LTK) of the same molecule?
Answer: 3.8%

Question: And the remaining binding at 10 µM (MLK3)?
Answer: 72%

Question: What about the remaining binding at 10 µM (MST4) of the same molecule?
Answer: 29%

Question: And the remaining binding at 10 µM (PCTK1)?
Answer: 100%

Question: And the remaining binding at 10 µM (PKMYT1)?
Answer: 74%

Question: And the remaining binding at 10 µM (PKN2)?
Answer: 31%

Question: What about the remaining binding at 10 µM (PRKG2) of the same molecule?
Answer: 40%

Question: What about the remaining binding at 10 µM (RET(M918T)) of the same molecule?
Answer: 37%

Question: And the remaining binding at 10 µM (RET(V804L))?
Answer: 81%

Question: And the remaining binding at 10 µM (ROCK2)?
Answer: 38%

Question: And the remaining binding at 10 µM [1]?
Answer: 100%

Question: What about the remaining binding at 10 µM (SRPK1) of the same molecule?
Answer: 40%

Question: What about the remaining binding at 10 µM (SRPK3) of the same molecule?
Answer: 38%

Question: What about the remaining binding at 10 µM (TEC) of the same molecule?
Answer: 90%

Question: And the remaining binding at 10 µM (TNIK)?
Answer: 17%

Question: And the remaining binding at 10 µM (TRKB)?
Answer: 73%

Question: What about the remaining binding at 10 µM (p38-alpha) of the same molecule?
Answer: 89%
